Results reported in PubChem BioAssay (NCI).
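Exposure lasted 48 hours, with cells grown in 96-well plates and compounds tested at five concentrations. GI50: concentration for 50% inhibition of growth. TGI: total growth inhibition.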

What was measured:
Test in all cases: inhibition of tumour cell growth, NCI panel, 48 h
[1] = test system: OVCAR-8 ovarian
[2] = test system: SN12C renal
[3] = test system: NCI-H522 lung
[4] = test system: DU-145 prostate
[5] = test system: SK-MEL-2 melanoma
[6] = test system: HOP-62 NSCLC
[7] = test system: EKVX NSCLC
[8] = test system: MOLT-4 leukemia
[9] = test system: BT-549 breast
[10] = test system: HL-60(TB) leukemia

| SMILES | TGI [1] [µM] | TGI [2] [µM] | TGI [3] [µM] | TGI [4] [µM] | TGI [5] [µM] | TGI [6] [µM] | TGI [7] [µM] | TGI [8] [µM] | TGI [9] [µM] | TGI [10] [µM] | GI50 [1] [µM] | GI50 [2] [µM] | GI50 [3] [µM] | GI50 [4] [µM] | GI50 [5] [µM] | GI50 [6] [µM] | GI50 [7] [µM] | GI50 [8] [µM] | GI50 [9] [µM] | GI50 [10] [µM] |
| --- | --- | --- | --- | --- | --- | --- | --- | --- | --- | --- | --- | --- | --- | --- | --- | --- | --- | --- | --- | --- |
| CSc1ccccc1P(CCP(c1ccccc1SC)c1ccccc1SC)c1ccccc1SC | > 100 | > 100 | > 100 | > 100 | > 97.2 | > 100 | 97.7 | > 100 | > 100 | 16.3 | – | – | – | – | – | – | – | – | – | – |
| OC(O)(C(F)(F)F)C(F)(F)F | > 100 | > 100 | > 100 | > 100 | > 100 | > 100 | > 100 | > 100 | > 100 | > 100 | – | – | – | – | – | – | – | – | – | – |
| COC(=O)C1[C@H](C(=O)OC)C1(Br)CBr (stereo partly drawn) | > 100 | > 100 | > 100 | > 100 | > 100 | > 100 | > 100 | > 100 | > 100 | > 100 | – | – | – | – | – | – | – | – | – | – |
| O=S(=O)(O)c1ccc(Nc2ccnc3cc(Cl)ccc23)cc1 | > 100 | > 100 | > 100 | > 100 | > 100 | > 100 | > 100 | > 100 | > 100 | > 100 | – | – | – | – | – | – | – | – | – | – |
| Cc1nn(-c2ccccn2)c2c1C(SC#N)=C(C=O)CC2 | 30.8 | 40.3 | 46 | 28.2 | 30.5 | 22.3 | 36.1 | 6.95 | 38.9 | 16 | – | – | – | – | – | – | – | – | – | – |
| CCOC(=O)C1=C(C)N(c2ccc(C)cc2)C2(O)C=CC(=O)C3=C(O)c4ccccc4C(=O)C312 (stereo not drawn) | > 100 | > 100 | 34.7 | 55.7 | 94.1 | > 100 | > 100 | 1.26 | 49.3 | 0.039 | – | – | – | – | – | – | – | – | – | – |
| O=C(NCCCCNCCCNC(=O)OCc1ccccc1)OCc1ccccc1 | 67.1 | > 100 | 39.2 | > 100 | 59.8 | > 100 | > 100 | 73.6 | > 100 | 60.4 | – | – | – | – | – | – | – | – | – | – |
| CCCCCCCCC[n+]1cccc(C2C(C(=O)OCC)=C(C)NC(C)=C2C(=O)OCC)c1 | 11.2 | 17.5 | 9.8 | 25.9 | 3.29 | 28.7 | 27.8 | 19.2 | 4.51 | 6.25 | – | – | – | – | – | – | – | – | – | – |
| C=C1C(=O)O[C@H]2C3C(=C(C)CC[C@@H]12)C(=O)[C@@H]1OC31C (stereo partly drawn) | 5.42 | 3.18 | 2.91 | 25.8 | 18.3 | 28.6 | 33.2 | 3.27 | 4.6 | 0.469 | – | – | – | – | – | – | – | – | – | – |
| Nc1ccc(-c2nc3ccccc3s2)cc1 | 17.7 | 43.5 | 40.1 | 31.6 | 64.2 | 60.3 | 87.4 | 70.3 | 28.9 | 61.6 | – | – | – | – | – | – | – | – | – | – |
| Cc1cc(C)c2c(c1)CC1(Cc3c(C)cc(C)cc3C1=O)C2=O (stereo not drawn) | > 100 | > 100 | > 100 | > 100 | > 100 | – | > 100 | > 100 | > 100 | > 100 | – | – | – | – | – | – | – | – | – | – |
| CC1(C)CC(=O)C(=CN2C(=O)CNC2=S)C(=O)C1 | > 100 | > 100 | > 100 | > 100 | > 100 | > 100 | > 100 | > 100 | > 100 | > 100 | – | – | – | – | – | – | – | – | – | – |
| Cc1ccc([N+](=O)[O-])cc1NC(=O)C(=O)C1CCC2=C(Sc3ccccc3N2)C1=O (stereo not drawn) | > 100 | > 100 | > 100 | > 100 | > 100 | > 100 | > 100 | > 100 | > 100 | > 100 | – | – | – | – | – | – | – | – | – | – |
| CCOC(=O)c1cc(-c2ccn(C(C)=O)c2)c(-c2cc(C)co2)[nH]1 | > 100 | > 100 | > 100 | > 100 | > 100 | > 100 | > 100 | > 100 | > 100 | > 100 | – | – | – | – | – | – | – | – | – | – |
| O=C(NCc1cccnc1)C(=O)NCc1cccnc1 | > 100 | > 100 | > 100 | > 100 | > 100 | > 100 | > 100 | > 100 | > 100 | 64.7 | – | – | – | – | – | – | – | – | – | – |
| N#Cc1c(-c2ccc(Cl)cc2)cc(-c2nc3ccccc3[nH]2)nc1N | 49.5 | 27.5 | 35.1 | 20.2 | 25.9 | 38.5 | 46.1 | 26.8 | 30.5 | 58.7 | – | – | – | – | – | – | – | – | – | – |

| SMILES | TGI [1] [µM] | TGI [2] [µM] | TGI [3] [µM] | TGI [4] [µM] | TGI [5] [µM] | TGI [6] [µM] | TGI [7] [µM] | TGI [8] [µM] | TGI [9] [µM] | TGI [10] [µM] | GI50 [1] [µM] | GI50 [2] [µM] | GI50 [3] [µM] | GI50 [4] [µM] | GI50 [5] [µM] | GI50 [6] [µM] | GI50 [7] [µM] | GI50 [8] [µM] | GI50 [9] [µM] | GI50 [10] [µM] |
| --- | --- | --- | --- | --- | --- | --- | --- | --- | --- | --- | --- | --- | --- | --- | --- | --- | --- | --- | --- | --- |
| COc1ccc(C2NC(=O)Nc3c2c(=O)oc2c3ccc3ccccc32)cc1 (stereo not drawn) | > 100 | > 100 | > 100 | > 100 | 82.8 | > 100 | 96.8 | > 100 | > 100 | > 100 | – | – | – | – | – | – | – | – | – | – |
| Cc1ccc(S(=O)(=O)N2CCN(CCO)CCN(S(=O)(=O)c3ccc(C)cc3)CCN(CCO)CC2)cc1 | > 100 | > 100 | 33.2 | 34.8 | 35.2 | 81.5 | 39.1 | 57.1 | > 100 | 37.3 | – | – | – | – | – | – | – | – | – | – |
| COc1ccc(C2=NNC(=O)c3ccccc3N2c2nc(-c3cccs3)nc3ccc(Br)cc23)cc1 | > 100 | > 100 | > 100 | > 100 | > 100 | 49.5 | 91.5 | > 100 | > 100 | > 100 | – | – | – | – | – | – | – | – | – | – |
| N#Cc1c(C#N)c(-c2ccccc2)n(/N=C\c2ccccc2)c1N | > 100 | > 100 | 49.5 | > 100 | 87.3 | > 100 | 63.9 | 30.9 | > 100 | > 100 | – | – | – | – | – | – | – | – | – | – |
| COC(=O)C[C@H](CCSC)NC(=O)C[C@H](CCSC)NC(=O)C[C@H](CCSC)NC(=O)OC(C)(C)C | > 100 | > 100 | > 100 | > 100 | 64.5 | > 100 | > 100 | > 100 | > 100 | > 100 | – | – | – | – | – | – | – | – | – | – |
| c1ccc2c(c1)c1c3n2-c2cc(on2)C3CCC1 (stereo not drawn) | > 100 | > 100 | > 100 | > 100 | > 100 | > 100 | > 100 | > 100 | > 100 | > 100 | – | – | – | – | – | – | – | – | – | – |
| Cn1c(=O)c2sc3cc4c(cc3c2c2ccccc21)sc1c(=O)n(C)c2ccccc2c14 | > 100 | > 100 | > 100 | > 100 | > 100 | 42.3 | > 100 | > 100 | 46.4 | > 100 | – | – | – | – | – | – | – | – | – | – |
| O=c1oc2ccccc2c(O)c1Cc1cccc(Cc2c(O)c3ccccc3oc2=O)c1 | > 100 | > 100 | > 100 | > 100 | > 100 | > 100 | > 100 | > 100 | > 100 | > 100 | – | – | – | – | – | – | – | – | – | – |
| COC1=CC(=O)c2c(cc(COP(=O)(N(C)CCBr)N(C)CCBr)n2C)C1=O | 3.98 | 3.76 | 2.15 | 19.5 | 4.87 | 5.23 | 6.55 | > 100 | 3.94 | > 100 | – | – | – | – | – | – | – | – | – | – |
| Cc1ccc2cnc(N)c(C#Cc3cncc(C(=O)Nc4ccc(CN5CCN(C)CC5)c(C(F)(F)F)c4)c3)c2c1 | 1.22 | 1.07 | 1.02 | 1.03 | 1.63 | 1.19 | 1.01 | 0.936 | 1.73 | 0.908 | 0.579 | 0.387 | 0.249 | 0.387 | 0.66 | 0.562 | 0.317 | 0.205 | 0.991 | 0.212 |
| COC(=O)c1c(C#C[Si](C)(C)C)c(C#C[Si](C)(C)C)c(C#C[Si](C)(C)C)c(C#C[Si](C)(C)C)c1C(=O)OC | > 100 | > 100 | > 100 | > 100 | > 100 | – | > 100 | > 100 | > 100 | > 100 | – | – | – | – | – | – | – | – | – | – |
| COC(=O)C1=C(C)NC2(C)OC(C)(O)C(C(C)=O)C12C(C)=O (stereo not drawn) | > 100 | > 100 | > 100 | > 100 | 54.6 | > 100 | > 100 | > 100 | > 100 | > 100 | – | – | – | – | – | – | – | – | – | – |
| CCCC(=O)OC1CC(n2cc(F)c(=O)[nH]c2=O)OC1CO (stereo not drawn) | > 10 | > 10 | > 10 | > 3.23 | > 10 | > 10 | > 10 | > 10 | > 10 | > 10 | – | – | – | – | – | – | – | – | – | – |
| COc1cc2c(cc1O)CC[C@@H]1C2CC[C@@]2(C)C1CC[C@@H]2O (stereo partly drawn) | 39.4 | > 82 | 6.87 | > 100 | > 100 | 45.8 | 44.6 | 32.1 | > 100 | 8.18 | – | – | – | – | – | – | – | – | – | – |
| Cc1cccc2c1C(=O)[C@@](C)([C@]1(C)Nc3cccc(C)c3C1=O)N2 | > 100 | > 100 | > 100 | > 100 | > 100 | > 100 | > 100 | > 100 | > 100 | 7.9 | – | – | – | – | – | – | – | – | – | – |
